Data reported in ChEMBL document CHEMBL1201862, “PubChem BioAssay data set” (2004).
Where “and” joins values, the source holds several entries; their conditions need not be identical. Equal entries are not always repeated.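 Interpolation was linear, between the two tested concentrations surrounding the appropriate level; five concentrations were tested over 48 hours in 96-well plates. Abbreviation: GI50, concentration required for 50% inhibition of growth.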 Calls of active or inactive are those of the source. No stated cut-off is given here; in the data, active = GI50 up to about 1.1 µM and inactive = higher. Where a SMILES comes first, the peptide text is derived from it. The star is where a group is joined. Boc = CC(C)(C)OC(=O)*; OSu = O=C1CCC(=O)N1O*

Assays:
Assay in all cases: NCI-60 cell line screen, 48 h
MDA-MB-435 = system: MDA-MB-435
HCT-116 = system: HCT-116
EKVX = system: EKVX
ACHN = system: ACHN
RPMI-8226 = system: RPMI-8226
UACC-62 = system: UACC-62
OVCAR-8 = system: OVCAR-8
Hs-578T = system: Hs-578T
SNB-19 = system: SNB-19
NCI/ADR-RES = system: NCI/ADR-RES
TK-10 = system: TK-10
SR = system: SR
MDA-N = system: MDA-N
A549 = system: A549
HOP-62 = system: HOP-62
MDA-MB-231 = system: MDA-MB-231
OVCAR-4 = system: OVCAR-4
K562 = system: K562
MOLT-4 = system: MOLT-4
UACC-257 = system: UACC-257

Row | SMILES | GI50 (MDA-MB-435) | GI50 (HCT-116) | GI50 (EKVX) | GI50 (ACHN) | GI50 (RPMI-8226) | GI50 (UACC-62) | GI50 (OVCAR-8) | GI50 (Hs-578T) | GI50 (SNB-19) | GI50 (NCI/ADR-RES) | GI50 (TK-10) | GI50 (SR) | GI50 (MDA-N) | GI50 (A549) | GI50 (HOP-62) | GI50 (MDA-MB-231) | GI50 (OVCAR-4) | GI50 (K562) | GI50 (MOLT-4) | GI50 (UACC-257)
1 | CC(=O)c1[nH]c(NC(C)C)c(C(=S)Nc2ccccc2)c1N | 21.7 µM (inactive) | 24.1 µM (inactive) | 37 µM (inactive) | 33.3 µM (inactive) | 0.059 µM (active) | 23.6 µM (inactive) | 28.4 µM (inactive) | 36 µM (inactive) | 27.8 µM (inactive) | 68.5 µM (inactive) | 40.8 µM (inactive) | 23.7 µM (inactive) | 22.1 µM (inactive) | 32.3 µM (inactive) | 38 µM (inactive) | 22.3 µM (inactive) | 30.4 µM (inactive) | 33.4 µM (inactive) | 37.2 µM (inactive) | 24 µM (inactive)
2 | BrCC[P+](c1ccccc1)(c1ccccc1)c1ccccc1 | 2.84 µM (inactive) | 2.28 µM (inactive) | 0.792 µM (active) | 3.18 µM (inactive) | 0.948 µM (active) | 6.58 µM (inactive) | 3.1 µM (inactive) | 20.4 µM (inactive) | 21.4 µM (inactive) | 6.31 µM (inactive) | 16.9 µM (inactive) | 4.93 µM (inactive) | 2.61 µM (inactive) | 1.91 µM (inactive) | 6.68 µM (inactive) | 18.3 µM (inactive) | 6.5 µM (inactive) | 1.77 µM (inactive) | 4.43 µM (inactive) | 3.7 µM (inactive)
3 | COCOc1cc(OCOC)cc(C(=O)Oc2ccccc2)c1 | > 100 µM (inactive) | > 100 µM (inactive) | 91.4 µM (inactive) | > 100 µM (inactive) | 61.7 µM (inactive) | > 100 µM (inactive) | > 100 µM (inactive) | 43.1 µM (inactive) | > 100 µM (inactive) | > 100 µM (inactive) | > 100 µM (inactive) | 85.9 µM (inactive) | > 100 µM (inactive) | > 100 µM (inactive) | > 100 µM (inactive) | > 100 µM (inactive) | > 100 µM (inactive) | > 100 µM (inactive) | > 100 µM (inactive) | > 100 µM (inactive)
4 | Nc1ccc2nc3n(c(=O)c2c1)CCCCC3 | > 100 µM (inactive) | > 100 µM (inactive) | > 100 µM (inactive) | > 100 µM (inactive) | > 100 µM (inactive) | > 100 µM (inactive) | > 100 µM (inactive) | > 100 µM (inactive) |  | > 100 µM (inactive) | > 100 µM (inactive) | > 100 µM (inactive) | > 100 µM (inactive) | > 100 µM (inactive) | > 100 µM (inactive) | > 100 µM (inactive) | > 100 µM (inactive) | > 100 µM (inactive) | > 100 µM (inactive) | > 100 µM (inactive)
5 | CC(NC(=O)C(NC(=O)OC(C)(C)C)C(C)C)C(=O)NCC(=O)ON1C(=O)CCC1=O (stereo not drawn) (Boc-Val-Ala-Gly-OSu; configuration not given here) | > 100 µM (inactive) | > 100 µM (inactive) | > 100 µM (inactive) | > 100 µM (inactive) | > 100 µM (inactive) | > 100 µM (inactive) | > 100 µM (inactive) | > 10 µM (inactive) | > 100 µM (inactive) | > 100 µM (inactive) | > 100 µM (inactive) | > 100 µM (inactive) | > 100 µM (inactive) | > 100 µM (inactive) | > 100 µM (inactive) | > 100 µM (inactive) |  | > 100 µM (inactive) | 45.9 µM (inactive) | > 100 µM (inactive)
6 | CN(C)Cc1cc(/N=N/c2ccc(Cl)cc2)cc(CN(C)C)c1O | 12.2 µM (inactive) | 4.85 µM (inactive) | > 10 µM (inactive) | 6.43 µM (inactive) | 12.8 µM (inactive) | 13.9 µM (inactive) | 3.75 µM (inactive) | 11.3 µM (inactive) | 10.6 µM (inactive) | 3.07 µM (inactive) | 5.94 µM (inactive) | 4.59 µM (inactive) | 13.2 µM (inactive) | 8.93 µM (inactive) | 2.58 µM (inactive) | 7.71 µM (inactive) |  | 2.52 µM (inactive) | 2.75 µM (inactive) | 16.2 µM (inactive)
7 | COc1ccc(/C=C2/N/C(=N\N=C/C(O)C(O)C(O)C(O)CO)NC2=O)cc1 (centres undefined) | > 100 µM (inactive) | > 100 µM (inactive) | > 100 µM (inactive) | > 100 µM (inactive) | > 100 µM (inactive) |  | > 100 µM (inactive) | > 100 µM (inactive) | > 100 µM (inactive) | > 100 µM (inactive) | > 100 µM (inactive) | > 100 µM (inactive) | > 100 µM (inactive) | > 100 µM (inactive) | > 100 µM (inactive) | > 100 µM (inactive) | 39.9 µM (inactive) and 39.4 µM (inactive) | 53.8 µM (inactive) and 78 µM (inactive) | > 10 µM (inactive) | > 100 µM (inactive)
8 | COc1ccc(C(=O)N(C(=O)N2CCN(c3ccccc3)CC2)S(=O)(=O)c2ccccc2)cc1 | 29.5 µM (inactive) | 18.8 µM (inactive) | 20.7 µM (inactive) | 18.8 µM (inactive) |  | 18.3 µM (inactive) | 19.8 µM (inactive) | 25.1 µM (inactive) | 24.7 µM (inactive) | 21.9 µM (inactive) | 38.4 µM (inactive) | 18.8 µM (inactive) | 23.9 µM (inactive) | 28.4 µM (inactive) | 35 µM (inactive) | 25.3 µM (inactive) | 30.5 µM (inactive) | 24.2 µM (inactive) | 19.5 µM (inactive) | 31.4 µM (inactive)
9 | CCCC(CCC(=O)O)(CCC(=O)O)[N+](=O)[O-] | > 100 µM (inactive) | > 100 µM (inactive) | > 100 µM (inactive) | > 100 µM (inactive) | > 100 µM (inactive) | > 100 µM (inactive) | > 100 µM (inactive) | > 100 µM (inactive) | > 100 µM (inactive) | > 100 µM (inactive) | > 100 µM (inactive) | > 100 µM (inactive) | > 100 µM (inactive) | > 100 µM (inactive) |  | > 100 µM (inactive) |  | > 100 µM (inactive) | > 100 µM (inactive) | > 100 µM (inactive)
10 | CC(=O)OC12c3ccccc3-c3ccccc3C1C1C(=O)N(C)C(=O)C12Cl (centres undefined) | > 10 µM (inactive) |  | > 10 µM (inactive) | > 10 µM (inactive) | > 10 µM (inactive) |  | > 10 µM (inactive) | > 10 µM (inactive) | > 10 µM (inactive) | > 10 µM (inactive) | > 10 µM (inactive) | > 10 µM (inactive) | > 10 µM (inactive) |  | > 10 µM (inactive) | > 10 µM (inactive) | > 10 µM (inactive) | > 10 µM (inactive) | > 10 µM (inactive) | > 10 µM (inactive)
11 | COc1ccccc1-c1cc(=O)c2ccccc2n1C1CC1 | 3.42 µM (inactive) | 1.23 µM (inactive) |  | 2.2 µM (inactive) | 1.71 µM (inactive) | 2.77 µM (inactive) | 3.79 µM (inactive) | 5.3 µM (inactive) | 4.86 µM (inactive) | 5.38 µM (inactive) |  | 2.95 µM (inactive) | 4.06 µM (inactive) | 2.84 µM (inactive) | 3.95 µM (inactive) | 3.76 µM (inactive) |  | 9.68 µM (inactive) | 19.4 µM (inactive) | 8.2 µM (inactive)
12 | CC(=N/NC(N)=S)/C(C)=N/NC(N)=S | > 100 µM (inactive) | > 100 µM (inactive) | > 100 µM (inactive) | > 100 µM (inactive) | > 100 µM (inactive) | > 100 µM (inactive) | > 100 µM (inactive) | > 100 µM (inactive) | > 100 µM (inactive) | > 100 µM (inactive) | > 100 µM (inactive) | > 100 µM (inactive) | > 100 µM (inactive) | > 100 µM (inactive) | > 100 µM (inactive) | > 100 µM (inactive) |  | > 100 µM (inactive) | > 100 µM (inactive) | > 100 µM (inactive)
13 | COC1=CC(=O)C2=C(C1=O)[C@H]1CC[C@]3(C)[C@@H](OC(C)=O)CC[C@H]3[C@@H]1CC2 | 19.2 µM (inactive) | 29.3 µM (inactive) | 13.6 µM (inactive) | 35.1 µM (inactive) | 31 µM (inactive) |  | 23.9 µM (inactive) | 38.3 µM (inactive) | > 100 µM (inactive) | 32.7 µM (inactive) | > 100 µM (inactive) | 37.4 µM (inactive) | 28.6 µM (inactive) | > 100 µM (inactive) | > 100 µM (inactive) | 17 µM (inactive) | 16.5 µM (inactive) | 44.4 µM (inactive) | 20.2 µM (inactive) | 27.1 µM (inactive)
14 | COc1c2c(cc3oc(=O)ccc13)OC(C)(C)C=C2 [XANTHOXYLETIN] | 27.2 µM (inactive) | 18.6 µM (inactive) | 37.9 µM (inactive) | 27.9 µM (inactive) | 24.5 µM (inactive) | 22.6 µM (inactive) | 24.2 µM (inactive) | 29.9 µM (inactive) | 35.6 µM (inactive) | 26 µM (inactive) | 30.9 µM (inactive) | 11.5 µM (inactive) | 29.4 µM (inactive) | 31.7 µM (inactive) | 34.9 µM (inactive) | 19.5 µM (inactive) |  | 35.2 µM (inactive) | 23.8 µM (inactive) | 31.7 µM (inactive)
